US6420398B2, “Urea derivatives having nitrogen aromatic heterocycle” (Santen Pharmaceutical Co., Ltd., priority 1998, dated 2002)
Counter-ions that a name gives are not always drawn.

Columns and labels:
[1] = system: TNF-α production induced by lipopolysaccharide (LPS) stimulation; experiment: Inhibitory effects on TNF-α production induced by LPS stimulation, in vivo test in rats (method of McGeehan et al.); conditions: Rattus norvegicus, 2 h; female rats; LPS from Salmonella s.c.; oral administration of 10 mg/kg test compound immediately after LPS; plasma TNF-α by ELISA two hours after LPS; read-out: TNF-α production inhibition rate (%)
Method: Inhibitory effects on TNF-α production induced by lipopolysaccharide (LPS) stimulation were studied by in vivo tests according to the method of McGeehan et al. (Nature, 370, 558-561 (1994)).
Female rats (five per group), body weight of about 200 g, about eight weeks old, were used as test animals. LPS from Salmonella was dissolved in physiological saline to prepare an LPS solution (1 mg/ml). Test compounds were dissolved or uniformly suspended in a 1% aqueous methylcellulose solution to give test compound preparation liquids.
The above-mentioned LPS solution (0.5 ml/kg) was subcutaneously administered to the rat. Immediately after the LPS administration, the test compound preparation liquid (5 ml/kg, containing 10 mg/kg test compound) was orally administered. Two hours after the LPS administration, blood was collected from abdominal aorta and was centrifuged at 4° C. and 3000 rpm for ten minutes. TNF-α levels in the obtained plasma were measured with a rat TNF-α -specific ELISA kit. TNF-α was not observed in the plasma with respect to an LPS-nonadministered group (control).
TNF-α production inhibition rates of the test compounds were determined by the following equation.
Inhibition rate (%)=[(A−B)/A]×100
A: TNF-α level in plasma of test compound-nonadministered group
B: TNF-α level in plasma of test compound-administered group

## CC(=O)SCCN(CCC1CCCCC1)C(=O)NCc1ccncc1 [Compound No. 8-1, 1-[2-(Acetylthio)ethyl]-1-(2-cyclohexylethyl)-3-(4-pyridylmethyl)urea hydrochloride]
[1]
  inhibition at 10 mg/kg: 80%

## CSCCN(CCC1CCCCC1)C(=O)NCc1ccncc1 [Compound No. 5-2, 1 (2-Cyclohexylethyl)-1-[2-(methylthio)ethyl]-3-(4-pyridylmethyl)urea]
[1]
  inhibition at 10 mg/kg: 81.2%

## CSCCN(CCC1CCCCC1)C(=O)NCCCc1ccncc1 [Compound No. 5-1, 1-(2-Cyclohexylethyl)-1-[2-(methylthio)ethyl]-3-[3-(4-pyridyl)propyl]urea]
[1]
  inhibition at 10 mg/kg: 74.9%

## CC(=O)SCCN(CCC1CCCCC1)C(=O)NCCCc1ccncc1 [Compound No. 4-3, 1-[2-(Acetylthio)ethyl]-1-(2-cyclohexylethyl)-3-[3-(4-pyridyl)propyl]urea]
other
  melting point: 70 °C
[1]
  inhibition at 10 mg/kg: 80.8%

## CC(=O)SCCN(CCC1CCCCC1)C(=O)NCCc1ccncc1 [Compound No. 4-2, 1-[2-(Acetylthio)ethyl]-1-(2-cyclohexylethyl)-3-[2-(4-pyridyl)ethyl]urea]
[1]
  inhibition at 10 mg/kg: 72.5%

## CC(=O)SCCN(CCC1CCCC1)C(=O)NCc1ccncc1 [Compound No. 8-3, 1-[2-(Acetylthio)ethyl]-1-(2-cyclopentylethyl)-3-(4-pyridylmethyl)urea hydrochloride]
[1]
  inhibition at 10 mg/kg: 78.9%

## CC(=O)SCCN(CCc1ccc(F)cc1)C(=O)NCCCc1ccncc1 [Compound No. 4-18, 1-[2-(Acetylthio)ethyl]-1-(4-fluorophenethyl)-3-[3-(4-pyridyl)propyl]urea]
[1]
  inhibition at 10 mg/kg: 64.2%

## CC(=O)SCCN(CCC12CC3CC(CC(C3)C1)C2)C(=O)NCc1ccncc1 [Compound No. 8-4, 1-[2-(Acetylthio)ethyl]-1-[2-(1-adamantyl)ethyl]-3-(4-pyridylmethyl)urea hydrochloride]
[1]
  inhibition at 10 mg/kg: 81%

## CC(=O)SCCN(CCc1ccccc1)C(=O)NCCCc1cccnc1 [Compound No. 4-15, 1-[2-(Acetylthio)ethyl]-1-phenethyl-3-[3-(3-pyridyl)propyl]urea]
[1]
  inhibition at 10 mg/kg: 77.3%

## CC(=O)SCCN(CCCc1ccccc1)C(=O)NCCCc1ccncc1 [Compound No. 4-17, 1-[2-(Acetylthio)ethyl]-1-(3-phenylpropyl)-3-[3-(4-pyridyl)propyl]urea]
[1]
  inhibition at 10 mg/kg: 70.6%

## CC(=O)SCCN(CCc1ccccc1)C(=O)NCCCc1ccncc1 [Compound No. 4-16, 1-[2-(Acetylthio)ethyl]-1-phenethyl-3-[3-(4-pyridyl)propyl]urea]
[1]
  inhibition at 10 mg/kg: 77.2%

## O=C(NCCCc1ccncc1)N(CCS)CCC1CCCCC1 [Compound No. 8-11, 1-(2-Cyclohexylethyl)-1-(2-mercaptoethyl)-3-[3-(4-pyridyl)propyl]urea hydrochloride]
[1]
  inhibition at 10 mg/kg: 63.6%

## CC(=O)SCCN(CCC1=CCCCC1)C(=O)NCc1ccncc1 [Compound No. 8-10, 1-[2-(Acetylthio)ethyl]-1-[2-(1-cyclohexenyl)ethyl]-3-(4-pyridylmethyl)urea hydrochloride]
[1]
  inhibition at 10 mg/kg: 69%
